“Also recorded” adds a separate entry of the source.
Each substance was assayed on NCI-60 cell lines.
Type: cell-based, human

Substance	Cell Line (NCI-60 cell line the peptide and its motif are associated with)	Cell Line (NCI-60 cell line the peptide is associated with)	Cell Line with which the peptide (and its tripeptide motif) is associated	Cell Line the peptide is associated with (peptide recovered from phage library selection on this NCI-60 cell line)
MVYSGVS	M14 Melanoma			
MYLRLLR		HCT-116 Colon		
NAASLPS			SR Leukemia	
NAGRGAS				TK-10 Renal
NAVRGSA		HCT-116 Colon		
NCYSLRS	OVCAR-4 Ovarian			
NEFLGRL		HCT-116 Colon		
NEGRLGI		SNB-75 CNS		
NELRVCR				SN12C Renal
NGGRVLS				ACHN Renal
NGRGSGW			HL-60-Leukemia	
NKGGLRQ	SK-OV-3-3 Ovarian			
NLADGSV			H322-Lung	
NLRGSRS	SK-MEL-2 Melanoma			
NLRVGAE	OVCAR-4 Ovarian			
NMAGGQE	IGROV1 Ovarian			
NMGAVGS	DU-145 Prostate			
NMGRGSL				ACHN Renal
NNVGGSS	OVCAR-4 Ovarian			
NPGLVWN				MDA-MB-231 Breast
NRAVLSA	SK-OV-3-3 Ovarian			
NRSSAKF			K-562-Leukemia	
NRSSGRR			SR Leukemia	
NRSSHCG	M14 Melanoma			
NSFGLRY		COLO-205-Colon		
NSGSVVS				MDA-MB-231 Breast

Substance	Cell Line (NCI-60 cell line the peptide and its motif are associated with)	Cell Line (NCI-60 cell line the peptide is associated with)	Cell Line with which the peptide (and its tripeptide motif) is associated	Cell Line the peptide is associated with (peptide recovered from phage library selection on this NCI-60 cell line)
NSKPLVS				T-47D Breast
NSQRSSV	UACC 257 Melanoma			
NSVRGSR	SK-OV-3-3 Ovarian			
NVGGGRF				NCI/ADR-RES Breast
NVSRAVG	OVCAR-8 Ovarian			
NWDARGR	M14 Melanoma			
NYGSSFH			Hop-62-Lung	
NYMGPSA			A549-Lung	
PAASRLL			RPMI-8226-Leukemia	
PAFGPSR			RPMI-8226-Leukemia	
PAGRMLS	SK-MEL-2 Melanoma			
PAILRVR				UO31 Renal
PATRGSV			Hop-92-Lung	
PAVAGST				HS 578 T Breast
PDRASDG			Hop-62-Lung	
PEGGRRP				SN12C Renal
PFHRRAV				T-47D Breast
PFPARSS			H23-Lung	
PGAVLTV		COLO-205-Colon		
PGAVPGA		HT-29 Colon		
PGFMAGS	UACC62 Melanoma			
PGGGRGR				UO31 Renal
PGGLVPG		HT-29 Colon		
PGGSDAA		SNB-19 CNS		
PGGSRHA	SK-MEL-5 Melanoma			
PGKRGVQ			H460-Lung	

Substance	Cell Line (NCI-60 cell line the peptide and its motif are associated with)	Cell Line (NCI-60 cell line the peptide is associated with)	Cell Line with which the peptide (and its tripeptide motif) is associated	Cell Line the peptide is associated with (peptide recovered from phage library selection on this NCI-60 cell line)
PGLGYAL				T-47D Breast
PGLRGPA	OVCAR-4 Ovarian			
PGSSFVG		HCT-15 Colon		
PGVLREP				A498 Renal
PIGAVMN	DU-145 Prostate			
PIGGLFG				ACHN Renal
PKAGRGS			Hop-62-Lung	
PLAVGLV		HCT-116 Colon		
PLAVSMV			SR Leukemia	
PLLREVG				SN12C Renal
PLLRQQL				ACHN Renal
PLQRGSG				BT-549 Breast
PLRSFDS			H23-Lung	
PLRSVWS		SF-268 CNS		
PLRVDNL			H23-Lung	
PLRVLKR		SF-295 CNS		
PNRRVSA			Hop-92-Lung	
PNSAGSV				SN12C Renal
PPGASLY	M14 Melanoma			
PPGGLKW		SW620-Colon		
PPPWGLR			K-562-Leukemia	
PPRAVTN	UACC62 Melanoma			
PQGPSSV				ACHN Renal
PQGRGVK		SNB-75 CNS		
PRAGGRW			EKVX-Lung	
PRASDIL				BT-549 Breast

Substance	Cell Line (NCI-60 cell line the peptide and its motif are associated with)	Cell Line (NCI-60 cell line the peptide is associated with)	Cell Line with which the peptide (and its tripeptide motif) is associated	Cell Line the peptide is associated with (peptide recovered from phage library selection on this NCI-60 cell line)
PRASSTG				SN12C Renal
PRGGRVA			Hop-92-Lung	
PRGLGVG	SK-MEL-2 Melanoma			
PRGMARG				BT-549 Breast
PRGRLFD		HT-29 Colon		
PRGSLFA				UO31 Renal
PRHRASQ	OVCAR-8 Ovarian			
PRLGRLL				TK-10 Renal
PRLSDKS	SK-MEL-28 Melanoma			
PRLSWVL		HT-29 Colon		
PRSSGPM				RXF393 Renal
PRSSLVV			H460-Lung	
PRSSYNE			H460-Lung	
PRVSALV				MDA-MB-231 Breast
PRYGVRA			RPMI-8226-Leukemia	
PSLLRGF	UACC62 Melanoma			
PSVGVRA			H322-Lung	
PTGAGLL	IGROV1 Ovarian			
PTGEGLR	SK-MEL-5 Melanoma			
PTSGRLV	PC3 Prostate			
PTVSAGL				NCI/ADR-RES Breast
PVFRGGS				MDA-MB-231 Breast
PVGAAVA	UACC62 Melanoma			
PVGGVLL			A549-Lung	
PVHSAGG			H460-Lung	
PVRGSVD			HL-60-Leukemia	

Substance	Cell Line (NCI-60 cell line the peptide and its motif are associated with)	Cell Line (NCI-60 cell line the peptide is associated with)	Cell Line with which the peptide (and its tripeptide motif) is associated	Cell Line the peptide is associated with (peptide recovered from phage library selection on this NCI-60 cell line)
PVRRVSS				HS 578 T Breast
PVSDGLV	SK-OV-3-3 Ovarian			
PWGAGVR				BT-549 Breast
PWYDGSV	OVCAR-3 Ovarian			
PYRRGSC				MDA-MB-231 Breast
PYYNGVR	IGROV1 Ovarian			
QAGSFLR			EKVX-Lung	
QARGSWL	OVCAR-4 Ovarian			
QDRVSRS			Hop-92-Lung	
QGGRSGV				A498 Renal
QGLVRGG	OVCAR-4 Ovarian			
QGRVNVK		SNB-19 CNS; also recorded: SF-539 CNS	H226-Lung	
QGSSNSV	IGROV1 Ovarian			
QGYALRV			H23-Lung	
QKPGAVG				T-47D Breast
QLGGSFR	SK-MEL-28 Melanoma			
QLLSQVY				MCF-7 Breast
QLPGLLR		SNB-75 CNS		
QLVSGSL		HCT-116 Colon		
QMQGRAV			H226-Lung	
QRAAVIV		SNB-19 CNS; also recorded: SF-539 CNS		
QRSSDLT	M14 Melanoma			
QRYHLRS				CAIK-1 Renal
QTLSAGG		SF-295 CNS		
QVAGRER			CCRF-CEM Leukemia	
QVLLRSF			Hop-62-Lung	
